Series [1] addresses T1, human hERG potassium channel (Homo sapiens, UniProt Q12809).
T1 construct: host or cells: CHO
Briefly: hERG test (QPatch automated patch clamp, CHO cells). In kind it is cell-based. The protocol:
• Cell: CHO cells stably expressing a human hERG potassium channel (WuXi AppTec (Shanghai) Co., Ltd.) • Reagents: physiological solution (PH=7.4): 140 mM NaCl, 4 mM KCl, 2 mM CaCl2), 1 mM MgCl2, 5 mM glucose, 10 mM HEPES, osmolarity: about 298 mOsm; external solution (PH=7.4): 80 mM NaCl, 4 mM KCl, 2 mM CaCl2, 1 mM MgCl2, 5 mM glucose, 60 mM NMDG, 10 mM HEPES, osmolarity: about 289 mOsm; and internal solution (PH=7.4): 10 mM NaCl, 10 mM KCl, 110 mM KF, 10 mM HEPES, EGTA: […], osmolarity: about 280 mOsm. • Equipment: QPatch high-throughput automated patch clamp system, Sophion. • Method: CHO cells stably expressing a human hERG potassium channel were digested with TrypLE and resuspended in the physiological solution for later use. The single-cell high-impedance sealing and whole-cell mode formation processes were automatically completed by Qpatch. The cells were clamped at a voltage of −80 mV, then a voltage of −50 mV was applied for 80 ms to subtract (current) leakage, and a voltage of +20 mV was applied for 4800 ms to open the hERG channel. The voltage was then reduced to −50 mV and maintained for 5000 ms. This process was used for data collection and analysis. Finally, the voltage was returned to the clamping voltage (−80 mV, 1000 ms). This process was repeated every 20,000 ms. […]

Series [2] addresses T2, human GnRHR (Homo sapiens, UniProt P30968).
T2 sequence (P30968 1-328): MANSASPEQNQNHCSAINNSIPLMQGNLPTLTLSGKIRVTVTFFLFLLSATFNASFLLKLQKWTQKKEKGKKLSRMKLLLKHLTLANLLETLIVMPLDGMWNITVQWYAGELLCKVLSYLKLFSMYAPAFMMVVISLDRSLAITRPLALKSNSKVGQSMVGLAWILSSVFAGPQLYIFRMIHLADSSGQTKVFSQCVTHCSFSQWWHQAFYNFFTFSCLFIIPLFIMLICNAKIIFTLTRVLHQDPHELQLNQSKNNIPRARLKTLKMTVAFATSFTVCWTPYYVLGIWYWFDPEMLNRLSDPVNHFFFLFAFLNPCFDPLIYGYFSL
Briefly: In vitro antagonistic activity screening (FLIPR calcium fluorescence, leuprolide acetate stimulation). The format is cell-based. The protocol:
• Cell: HEK293 cells stably expressing human GnRHR (WuXi AppTec (Shanghai) Co., Ltd.) • Equipment: 384-well plate, Greiner; Vi-cell XR Cell Viability Analyzer, Beckman Coulter; incubator, Thermo. • Method: HEK293 cells stably expressing human GnRHR were seeded into a 384-well plate at a density of 20,000 cells/well. Fluo-4 Direct™ No-wash Loading Buffer (Invitrogen) was added to each well the next day, and then the plate was put back into an incubator, incubated at 37° C. for 50 min, and then incubated at room temperature for 10 min. […] Fluorescence was measured using a FLIPR Tetra high-throughput real-time fluorescence assay and analysis system. Then 10 μL of Leuprolide acetate was added, and fluorescence was measured. The IC50 and IC90 of the compound were calculated using Prism.

A short description of series [3]: In vivo pharmacokinetics in SD rats. The note with it: intragastric administration group. The protocol: (§1) • Rats: SD rats, male, 200-250 g • Instruments: water purification instrument, Millipore; electronic balance, METTLER TOLEDO; high-speed benchtop centrifuge, Thermo; water bath thermostatic oscillator, Shanghai Yiheng Technical Co., Ltd.; vortex oscillator, Thermo; LC-MS/MS, AB SCIEX. • Method: Solutions of all compounds were prepared using DMSO and 20% solutol. In the pharmacokinetic experiment, the administration dose for the intravenous group (i.v) was 1 mg/kg, and the administration dose for the intragastric group (i.g) was 12 mg/kg; each group contained 3 rats. Blood was collected from the orbit of the rats before administration (0 h) and at set time points after administration. In the tissue distribution experimental group, the rats were intragastrically dosed at 12 mg/kg. […] in a heparinized EP tube and centrifuged at 13,500 rpm for 10 min to isolate the plasma. The pituitary was homogenized with water in a certain ratio. The plasma and pituitary homogenates were pre-treated and then analyzed by LC-MS/MS to determine the concentrations of the test substances in the plasma and the pituitary. The plasma drug concentration data were processed in a non-compartmental model using WinNonlin™ Version 6.3 (Pharsight, Mountain View, CA) pharmacokinetic software.

Another series has as its system Caco-2 cells. Description: Permeability and transporter substrate evaluation in Caco-2 monolayer. The format is in vitro ADME. The protocol:
• Cell: Caco-2 cells • Instruments: water purification instrument, ELGA Lab Wate; biosafety cabinet, NUAIRE; thermostatic CO2 incubator, Thermo; microplate reader, PerkinElmer; LC-MS/MS, AB SCIEX. • Method: A Caco-2 monolayer cell model was used to determine the two-way permeability of the test substance and evaluate whether the test substance was transported via efflux by a transporter. In the experiment, Caco-2 cells were seeded into a 96-well cell culture plate and cultured for 28 consecutive days before a transport assay. The test substance was administered on two sides. After 120 min of incubation, samples of apical end A, basal end B, and the cell lysate were collected, and the content of the test substance in the samples was quantitatively determined using a liquid chromatography-tandem mass spectrometry (LC/MS/MS) method. The apparent permeability coefficients (Papp) in the direction from the apical end to the basal end (A-B) and in the direction from the basal end to the apical end (B-A) and the efflux ratio were calculated based on the concentration of the test substance.
Background: Caco-2 cells form a polarised layer with tight junctions and transporters.

The target of series [4] is T2, human GnRHR. Briefly: In vitro binding screening ([125I]-[D-Trp6]-LH-RH displacement, Chem-1 cell membrane). Also on record: host or cells: Chem-1 cells (membrane preparation). The protocol:
1 μM [D-Trp6]-LH-RH was used in the non-specific binding assay. The cell membrane was collected by filtration under vacuum and washed before liquid scintillation. The binding IC50 and IC90 of the compound were calculated using Prism.

Series [5] can be described thus: Pituitary tissue distribution in SD rats after intragastric administration. The format is in vivo. The note with it: i.g 12 mg/kg; for Plasma concentration: in ng/mL (unit assumed). The protocol: as §1

Data on one compound can be found in patent US20260285874A1, “SALT FORM AND CRYSTAL FORM OF THIENOPYRIMIDINE COMPOUND, AND PREPARATION METHOD THEREFOR AND USE THEREOF” (SHANDONG LUYE PHARMACEUTICAL CO., LTD., priority 2023, published 2026).

T1 sequence (Q12809 whole entry): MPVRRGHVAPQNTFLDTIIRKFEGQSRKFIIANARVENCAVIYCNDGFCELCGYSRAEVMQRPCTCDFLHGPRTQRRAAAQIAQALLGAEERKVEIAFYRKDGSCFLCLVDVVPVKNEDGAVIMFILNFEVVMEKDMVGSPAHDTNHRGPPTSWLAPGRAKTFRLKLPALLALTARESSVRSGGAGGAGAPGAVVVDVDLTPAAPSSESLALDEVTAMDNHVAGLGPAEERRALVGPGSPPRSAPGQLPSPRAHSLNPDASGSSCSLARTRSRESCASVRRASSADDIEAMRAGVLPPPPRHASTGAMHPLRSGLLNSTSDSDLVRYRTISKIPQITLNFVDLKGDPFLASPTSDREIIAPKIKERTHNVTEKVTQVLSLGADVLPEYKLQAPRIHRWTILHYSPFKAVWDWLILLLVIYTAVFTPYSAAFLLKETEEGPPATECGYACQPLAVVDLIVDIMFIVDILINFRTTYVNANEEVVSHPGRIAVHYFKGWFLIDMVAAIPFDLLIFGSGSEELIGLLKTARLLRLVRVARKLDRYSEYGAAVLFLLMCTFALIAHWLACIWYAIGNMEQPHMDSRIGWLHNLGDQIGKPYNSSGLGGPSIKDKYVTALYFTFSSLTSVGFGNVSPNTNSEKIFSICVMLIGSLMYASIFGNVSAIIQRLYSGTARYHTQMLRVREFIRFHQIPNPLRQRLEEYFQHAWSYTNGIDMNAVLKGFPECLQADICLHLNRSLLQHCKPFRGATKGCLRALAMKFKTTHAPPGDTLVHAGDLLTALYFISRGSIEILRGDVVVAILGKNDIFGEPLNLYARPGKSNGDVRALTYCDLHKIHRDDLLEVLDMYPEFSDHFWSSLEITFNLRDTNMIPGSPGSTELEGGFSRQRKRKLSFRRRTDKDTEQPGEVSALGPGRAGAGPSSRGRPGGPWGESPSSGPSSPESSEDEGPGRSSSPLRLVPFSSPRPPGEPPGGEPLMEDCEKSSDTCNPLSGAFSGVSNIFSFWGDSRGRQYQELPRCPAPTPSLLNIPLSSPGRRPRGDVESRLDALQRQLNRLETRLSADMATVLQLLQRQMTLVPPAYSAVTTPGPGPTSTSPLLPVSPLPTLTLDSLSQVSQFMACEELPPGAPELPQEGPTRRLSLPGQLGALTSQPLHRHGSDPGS

Turning to `CCNC(=O)Nc1ccc(-c2sc3c(c2CN(C)C)c(=O)n(-c2ccc(OC)nn2)c(=O)n3Cc2c(F)cccc2F)cn1` [Formula I], the “Inhibitory activity against the human hERG potassium channel (conclusion)” value in series [1] is “relatively low inhibitory activity”. Also, on human GnRHR [2], the “Inhibitory effect on human GnRHR (conclusion)” value is on record as “significant inhibitory effect”. The “Absolute bioavailability relative to Relugolix” value in series [3] was 3.47 times. Moreover, the “Efflux ratio (conclusion)” value in the series with Caco-2 cells was “relatively low efflux ratio”. Also, on human GnRHR [4], the “Binding ability to human GnRHR (conclusion)” value was “significant binding ability”. The Pituitary concentration in series [5] (1 h) is recorded as 2250 ± 474; in series [5] (4 h), 1841 ± 636; in series [5] (12 h) it was 1254 ± 494. The Plasma concentration in series [5] (1 h) is reported as 39.5 ± 14.0; in series [5] (4 h), 22.8 ± 2.5; in series [5] (12 h) it was 9.70 ± 3.10.
